Measured values reported in ChEMBL document CHEMBL4325871 (Eur J Med Chem, 2019).

Key:
[1] = biological target: Serine/threonine-protein kinase 17A (Homo sapiens) (UniProt Q9UEE5); experiment: Inhibition of human DRAK1 assessed as residual activity at 1 uM using KKLNRTLSFAEPG as substrate by [gamma-33P]-ATP assay relative to control
[2] = biological target: Mitogen-activated protein kinase kinase kinase 12 (Homo sapiens) (UniProt Q12852); experiment: Inhibition of human DLK assessed as residual activity at 1 uM using MBP as substrate by [gamma-33P]-ATP assay relative to control
[3] = biological target: T1, Serine/threonine-protein kinase Chk1 (Homo sapiens) (UniProt O14757); experiment: Inhibition of CHK1 phosphorylation at S296 residue in human FOLFOX-resistant HT-29 cells after 24 hrs by Western blot analysis
T1 sequence (whole entry): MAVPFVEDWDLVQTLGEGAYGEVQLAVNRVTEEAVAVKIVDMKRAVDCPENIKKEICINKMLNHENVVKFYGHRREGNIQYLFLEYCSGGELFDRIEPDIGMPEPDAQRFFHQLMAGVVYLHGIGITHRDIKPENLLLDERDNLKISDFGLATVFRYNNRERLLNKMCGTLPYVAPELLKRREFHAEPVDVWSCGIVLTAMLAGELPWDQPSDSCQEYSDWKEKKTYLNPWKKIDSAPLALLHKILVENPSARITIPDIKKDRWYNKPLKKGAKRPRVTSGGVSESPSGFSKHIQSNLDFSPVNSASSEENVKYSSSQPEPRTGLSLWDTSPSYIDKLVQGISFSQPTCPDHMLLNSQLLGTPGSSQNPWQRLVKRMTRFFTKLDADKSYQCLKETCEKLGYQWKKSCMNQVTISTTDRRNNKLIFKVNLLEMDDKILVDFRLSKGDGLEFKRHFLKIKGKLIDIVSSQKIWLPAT

[4] = biological target: Protein kinase C epsilon type (Homo sapiens) (UniProt Q02156); experiment: Inhibition of human PKCepsilon assessed as residual activity at 1 uM using ERMRPRKRQGSVRRRV as substrate by [gamma-33P]-ATP assay relative to control
[5] = biological target: Cyclin-dependent kinase 14/Cyclin-Y (Homo sapiens) (UniProt O94921+Q8ND76); experiment: Inhibition of human CDK14/cyclin-Y assessed as residual activity at 1 uM using RB protein as substrate by [gamma-33P]-ATP assay relative to control; assay type: protein-complex assay
[6] = biological target: T1, Serine/threonine-protein kinase Chk1 (Homo sapiens); experiment: Inhibition of CHK1 phosphorylation at S317 residue in human FOLFOX-resistant HCT116 cells after 24 hrs by Western blot analysis
[7] = biological target: CDK9/Cyclin-T2 (Homo sapiens) (UniProt P50750+O60583); experiment: Inhibition of human CDK9/cyclin-T2 assessed as residual activity at 1 uM using KTFCGTPEYLAPEVRREPRILSEEEQEMFRDFDYIADWC as substrate by [gamma-33P]-ATP assay relative to control; assay type: protein-complex assay
[8] = biological target: Mitogen-activated protein kinase kinase kinase 3 (Homo sapiens) (UniProt Q99759); experiment: Inhibition of human MEKK3 assessed as residual activity at 1 uM using MBP as substrate by [gamma-33P]-ATP assay relative to control
[9] = biological target: Rhodopsin kinase GRK1 (Homo sapiens) (UniProt Q15835); experiment: Inhibition of human GRK1 assessed as residual activity at 1 uM using casein as substrate by [gamma-33P]-ATP assay relative to control
[10] = biological target: Activin receptor type-1 (Homo sapiens) (UniProt Q04771); experiment: Inhibition of human ALK2 assessed as residual activity at 1 uM using casein as substrate by [gamma-33P]-ATP assay relative to control
[11] = biological target: Serine/threonine-protein kinase TAO1 (Homo sapiens) (UniProt Q7L7X3); experiment: Inhibition of human TAOK1 assessed as residual activity at 1 uM using MBP as substrate by [gamma-33P]-ATP assay relative to control
[12] = biological target: Interleukin-1 receptor-associated kinase 4 (Homo sapiens) (UniProt Q9NWZ3); experiment: Inhibition of human IRAK4 assessed as residual activity at 1 uM using MBP as substrate by [gamma-33P]-ATP assay relative to control
[13] = biological target: Casein kinase I isoform alpha (Homo sapiens) (UniProt P48729); experiment: Inhibition of human CK1a1 assessed as residual activity at 1 uM using KRRRAL[pS]VASLPGL as substrate by [gamma-33P]-ATP assay relative to control
[14] = biological target: MAP/microtubule affinity-regulating kinase 4 (Homo sapiens) (UniProt Q96L34); experiment: Inhibition of human MARK4 assessed as residual activity at 1 uM using KKKVSRSGLYRSPSMPENLNRPR as substrate by [gamma-33P]-ATP assay relative to control
[15] = biological target: Tyrosine-protein kinase receptor UFO (Homo sapiens) (UniProt P30530); experiment: Inhibition of human AXL assessed as residual activity at 1 uM using EAIYAAPFAKKK as substrate by [gamma-33P]-ATP assay relative to control
[16] = biological target: Dual specificity protein kinase CLK4 (Homo sapiens) (UniProt Q9HAZ1); experiment: Inhibition of human CLK4 assessed as residual activity at 1 uM using MBP as substrate by [gamma-33P]-ATP assay relative to control
[17] = biological target: Casein kinase II subunit alpha (Homo sapiens, UniProt P68400); experiment: Inhibition of human CK2A assessed as residual activity at 1 uM using RRRDDDSDDD as substrate by [gamma-33P]-ATP assay relative to control
[18] = biological target: Mitogen-activated protein kinase kinase kinase 5 (Homo sapiens) (UniProt Q99683); experiment: Inhibition of human ASK1 assessed as residual activity at 1 uM using MBP as substrate by [gamma-33P]-ATP assay relative to control
[19] = biological target: Proto-oncogene tyrosine-protein kinase ROS (Homo sapiens) (UniProt P08922); experiment: Inhibition of human ROS assessed as residual activity at 1 uM using KKKSPGEYVNIEFG as substrate by [gamma-33P]-ATP assay relative to control
Chain of Proto-oncogene tyrosine-protein kinase ROS (Homo sapiens) (P08922 whole entry): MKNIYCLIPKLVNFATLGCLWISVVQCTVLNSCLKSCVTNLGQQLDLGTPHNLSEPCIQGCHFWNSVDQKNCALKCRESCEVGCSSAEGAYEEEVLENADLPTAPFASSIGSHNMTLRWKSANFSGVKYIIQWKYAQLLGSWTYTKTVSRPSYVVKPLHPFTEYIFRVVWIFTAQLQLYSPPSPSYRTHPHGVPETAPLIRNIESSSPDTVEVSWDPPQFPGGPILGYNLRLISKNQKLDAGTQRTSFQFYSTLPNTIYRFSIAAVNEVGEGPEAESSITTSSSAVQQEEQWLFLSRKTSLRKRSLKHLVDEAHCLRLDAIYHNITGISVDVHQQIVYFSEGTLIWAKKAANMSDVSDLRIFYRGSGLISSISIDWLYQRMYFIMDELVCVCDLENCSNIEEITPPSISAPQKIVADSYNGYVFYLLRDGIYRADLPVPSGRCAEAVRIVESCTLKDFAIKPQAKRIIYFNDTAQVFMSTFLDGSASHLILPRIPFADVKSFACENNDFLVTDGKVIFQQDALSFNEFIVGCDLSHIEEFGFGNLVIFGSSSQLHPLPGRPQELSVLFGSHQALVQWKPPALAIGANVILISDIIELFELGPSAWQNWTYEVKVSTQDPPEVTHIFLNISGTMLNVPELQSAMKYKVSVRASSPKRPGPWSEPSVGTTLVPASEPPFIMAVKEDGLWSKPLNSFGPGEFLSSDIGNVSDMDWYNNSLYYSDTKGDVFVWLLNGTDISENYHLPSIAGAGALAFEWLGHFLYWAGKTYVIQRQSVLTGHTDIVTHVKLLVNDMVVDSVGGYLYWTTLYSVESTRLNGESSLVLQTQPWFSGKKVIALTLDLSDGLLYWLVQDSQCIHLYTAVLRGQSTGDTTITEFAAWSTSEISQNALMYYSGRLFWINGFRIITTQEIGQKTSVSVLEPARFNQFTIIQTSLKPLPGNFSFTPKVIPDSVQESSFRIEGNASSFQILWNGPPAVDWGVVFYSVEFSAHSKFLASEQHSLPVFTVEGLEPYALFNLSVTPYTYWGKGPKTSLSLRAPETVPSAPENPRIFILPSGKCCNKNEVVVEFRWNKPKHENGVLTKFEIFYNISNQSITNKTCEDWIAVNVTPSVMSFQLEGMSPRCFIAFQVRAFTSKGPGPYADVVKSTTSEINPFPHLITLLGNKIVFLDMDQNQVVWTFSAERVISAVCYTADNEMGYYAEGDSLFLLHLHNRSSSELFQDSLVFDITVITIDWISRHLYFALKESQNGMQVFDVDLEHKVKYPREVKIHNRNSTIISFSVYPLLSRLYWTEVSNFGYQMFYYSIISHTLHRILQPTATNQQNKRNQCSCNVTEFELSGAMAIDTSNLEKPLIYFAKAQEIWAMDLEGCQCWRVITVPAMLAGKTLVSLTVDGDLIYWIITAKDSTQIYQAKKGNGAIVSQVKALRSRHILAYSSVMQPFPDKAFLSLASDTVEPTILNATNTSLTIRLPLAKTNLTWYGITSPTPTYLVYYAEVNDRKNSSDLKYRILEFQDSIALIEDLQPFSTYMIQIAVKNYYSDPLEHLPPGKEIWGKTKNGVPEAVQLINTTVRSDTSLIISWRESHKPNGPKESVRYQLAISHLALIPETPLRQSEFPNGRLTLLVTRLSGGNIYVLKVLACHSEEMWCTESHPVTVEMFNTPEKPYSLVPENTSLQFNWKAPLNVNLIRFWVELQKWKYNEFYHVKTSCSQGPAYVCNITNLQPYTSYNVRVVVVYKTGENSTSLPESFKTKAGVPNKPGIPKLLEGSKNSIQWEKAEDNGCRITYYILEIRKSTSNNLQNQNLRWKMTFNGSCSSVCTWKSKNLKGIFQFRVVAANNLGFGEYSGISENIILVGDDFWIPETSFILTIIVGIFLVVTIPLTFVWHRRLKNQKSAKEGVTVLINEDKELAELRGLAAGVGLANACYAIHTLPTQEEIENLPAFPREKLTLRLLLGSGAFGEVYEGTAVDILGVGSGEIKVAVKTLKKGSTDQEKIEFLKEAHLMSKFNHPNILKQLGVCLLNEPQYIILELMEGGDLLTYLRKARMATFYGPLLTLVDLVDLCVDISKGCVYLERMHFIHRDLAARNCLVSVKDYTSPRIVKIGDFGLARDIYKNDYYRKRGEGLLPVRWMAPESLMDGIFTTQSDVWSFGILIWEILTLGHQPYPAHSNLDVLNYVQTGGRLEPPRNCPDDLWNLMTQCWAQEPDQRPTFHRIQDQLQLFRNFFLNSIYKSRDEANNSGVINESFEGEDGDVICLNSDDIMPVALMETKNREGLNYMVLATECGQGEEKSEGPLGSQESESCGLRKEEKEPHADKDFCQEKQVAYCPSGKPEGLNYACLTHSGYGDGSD

Chain of Mitogen-activated protein kinase kinase kinase 3 (Homo sapiens) (Q99759 whole entry): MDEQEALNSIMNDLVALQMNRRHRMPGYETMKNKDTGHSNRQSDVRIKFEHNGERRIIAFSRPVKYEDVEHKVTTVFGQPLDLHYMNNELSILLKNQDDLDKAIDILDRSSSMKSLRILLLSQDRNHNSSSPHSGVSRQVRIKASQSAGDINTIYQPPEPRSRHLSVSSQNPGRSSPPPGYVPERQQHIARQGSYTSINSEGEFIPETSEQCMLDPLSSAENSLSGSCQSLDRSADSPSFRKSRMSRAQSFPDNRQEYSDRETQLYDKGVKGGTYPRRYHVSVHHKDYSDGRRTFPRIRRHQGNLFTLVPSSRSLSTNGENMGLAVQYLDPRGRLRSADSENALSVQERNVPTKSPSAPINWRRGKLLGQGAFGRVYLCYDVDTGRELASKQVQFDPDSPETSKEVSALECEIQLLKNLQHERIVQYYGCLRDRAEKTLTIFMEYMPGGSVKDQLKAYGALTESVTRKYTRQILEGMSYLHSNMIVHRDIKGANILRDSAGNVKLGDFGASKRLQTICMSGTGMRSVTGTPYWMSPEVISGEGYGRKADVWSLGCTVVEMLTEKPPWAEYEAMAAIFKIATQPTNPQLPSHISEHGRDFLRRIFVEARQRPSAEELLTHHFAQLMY
Chain of Dual specificity protein kinase CLK4 (Homo sapiens) (Q9HAZ1 whole entry, looked up): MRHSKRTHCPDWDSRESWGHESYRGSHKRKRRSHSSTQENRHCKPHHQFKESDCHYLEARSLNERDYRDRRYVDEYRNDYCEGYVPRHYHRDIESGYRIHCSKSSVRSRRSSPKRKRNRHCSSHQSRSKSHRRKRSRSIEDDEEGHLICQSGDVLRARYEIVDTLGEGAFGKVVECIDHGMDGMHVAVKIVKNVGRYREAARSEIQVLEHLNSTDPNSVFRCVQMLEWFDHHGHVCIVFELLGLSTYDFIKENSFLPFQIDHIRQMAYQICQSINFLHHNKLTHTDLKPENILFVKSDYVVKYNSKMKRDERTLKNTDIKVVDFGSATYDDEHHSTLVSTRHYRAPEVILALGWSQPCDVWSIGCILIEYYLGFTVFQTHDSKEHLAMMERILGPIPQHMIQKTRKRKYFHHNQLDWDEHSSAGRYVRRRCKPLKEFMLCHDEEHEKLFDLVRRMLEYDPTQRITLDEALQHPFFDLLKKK
Chain of Interleukin-1 receptor-associated kinase 4 (Homo sapiens) (Q9NWZ3 whole entry, canonical isoform): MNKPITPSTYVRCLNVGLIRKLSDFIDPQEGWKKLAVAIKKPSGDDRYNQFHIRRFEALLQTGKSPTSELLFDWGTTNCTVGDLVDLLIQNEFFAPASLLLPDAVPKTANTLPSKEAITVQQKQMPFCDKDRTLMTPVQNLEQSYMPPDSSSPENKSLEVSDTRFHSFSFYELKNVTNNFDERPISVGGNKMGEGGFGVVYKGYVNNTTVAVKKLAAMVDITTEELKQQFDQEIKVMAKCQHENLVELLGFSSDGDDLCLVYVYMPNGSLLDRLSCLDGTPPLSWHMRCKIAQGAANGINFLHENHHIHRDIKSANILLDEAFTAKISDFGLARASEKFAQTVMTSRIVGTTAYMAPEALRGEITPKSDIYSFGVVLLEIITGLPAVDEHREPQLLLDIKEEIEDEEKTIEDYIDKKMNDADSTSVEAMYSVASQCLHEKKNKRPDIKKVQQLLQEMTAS
Chain of Activin receptor type-1 (Homo sapiens) (Q04771 whole entry): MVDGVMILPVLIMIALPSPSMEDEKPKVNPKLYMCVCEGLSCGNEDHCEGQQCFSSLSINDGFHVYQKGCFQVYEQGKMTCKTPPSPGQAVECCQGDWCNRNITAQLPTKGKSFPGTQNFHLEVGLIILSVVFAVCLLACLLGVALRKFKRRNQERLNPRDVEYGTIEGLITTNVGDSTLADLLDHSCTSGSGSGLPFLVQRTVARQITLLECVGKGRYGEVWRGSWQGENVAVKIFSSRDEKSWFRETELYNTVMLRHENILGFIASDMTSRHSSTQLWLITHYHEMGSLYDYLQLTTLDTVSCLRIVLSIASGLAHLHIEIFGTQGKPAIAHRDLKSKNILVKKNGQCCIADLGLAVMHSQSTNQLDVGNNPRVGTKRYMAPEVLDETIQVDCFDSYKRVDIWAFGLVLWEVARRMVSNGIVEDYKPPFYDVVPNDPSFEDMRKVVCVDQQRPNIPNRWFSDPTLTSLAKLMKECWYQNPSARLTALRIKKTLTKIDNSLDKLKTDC
Chain of Casein kinase II subunit alpha (P68400 whole entry, looked up): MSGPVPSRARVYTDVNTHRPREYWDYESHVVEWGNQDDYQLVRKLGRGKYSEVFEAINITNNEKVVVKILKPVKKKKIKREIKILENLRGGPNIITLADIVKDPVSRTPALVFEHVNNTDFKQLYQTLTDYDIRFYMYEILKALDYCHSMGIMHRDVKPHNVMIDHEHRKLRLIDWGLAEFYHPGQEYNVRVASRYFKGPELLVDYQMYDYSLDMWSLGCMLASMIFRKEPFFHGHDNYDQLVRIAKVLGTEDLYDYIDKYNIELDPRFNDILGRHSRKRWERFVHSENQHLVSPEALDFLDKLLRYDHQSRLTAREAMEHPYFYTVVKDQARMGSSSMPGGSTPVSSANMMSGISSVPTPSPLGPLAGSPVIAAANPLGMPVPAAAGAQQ

SMILES	Activity [1] [%]	Activity [2] [%]	inhibition [3]	Activity [4] [%]	Activity [5] [%]	inhibition [6]	Activity [7] [%]	Activity [8] [%]	Activity [9] [%]	Activity [10] [%]	Activity [11] [%]	Activity [12] [%]	Activity [13] [%]	Activity [14] [%]	Activity [15] [%]	Activity [16] [%]	Activity [17] [%]	Activity [18] [%]	Activity [19] [%]
C(=C\c1ccccc1)/C[N+]12CN3CN(CN(C3)C1)C2	92.8 to 95.6	88.4 to 93.3	Dose-dependent effect	121 to 126	95.2 to 96.5	Dose-dependent effect	87 to 94.5	117 to 119	88.5 to 88.9	96.6 to 96.7	94.8 to 96	92.1 to 96.8	94.9 to 96.5	93.8 to 96.3	94.8 to 94.9	93.1 to 93.2	124 to 125	89.4 to 90.7	94.4 to 94.8
ClC/C=C/C[N+]12CN3CN(CN(C3)C1)C2	90.9 to 92.8	71.9 to 74.8	Dose-dependent effect	121 to 133	96.5 to 97.3	Dose-dependent effect	95.7 to 97.6	118 to 123	88.2 to 88.7	94.7 to 94.8	95.7 to 96.8	91.5 to 92.7	95.6 to 96.5	90.2 to 95.2	95.7 to 96.5	86.9 to 91.8	124 to 125	87.6 to 89	94 to 95.2
